Patent US12157730B2, “Heteroaryl derivative, method for producing same, and pharmaceutical composition comprising same as effective component” (VORONOI INC., priority 2019, dated 2024)

Target: T1, Ba/F3 cell EGFR Exon20 ins NPH (Homo sapiens, UniProt P00533, INS773NPH)
T1 construct: expressed in transfected cells; host or cells: Ba/F3
Assay: Ba/F3 cell proliferation suppression, EGFR Exon20 ins NPH
Type: cell-based
Details: GI50 class; Ba/F3 cell line with NPH inserted at Exon20 of EGFR; 72 hours
Summary of the method: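 After 72 h compound exposure (twelve 3-fold steps, 0.3 nM–50 um final), live cells were measured by CellTiter-Glo luminescence and growth expressed as % of control to derive GI50. Cells were seeded at 3000–5000 per well a day earlier; Ba/F3 medium contained IL-3; three repeats.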

Molecule	Ba/F3 (NPH) Activity
C=CC(=O)Nc1cc(Nc2cc(N3OCC[C@@H]3c3ccccc3)ncn2)c(OC)cc1N1CCC(N2CC3CC2CN3C)CC1 (stereo partly drawn) [Example 52, N-(4-methoxy-2-(4-(5-methyl-2,5-diazabicyclo [2.2.1]heptane-2-yl)piperidine-1-yl)-5-((6-((R)-3-phenylisoxazolidine-2-yl)pyrimidine-1-yl)amino)phenyl) acrylamide]	A (GI50 < 50 nM)
C=CC(=O)Nc1cc(Nc2cc(N3OCC[C@@H]3c3cccc(F)c3)ncn2)c(OC)cc1N1CCC(N2CCN(C3COC3)CC2)CC1 [Example 80, N-(5-((6-((R)-3-(3-fluorophenyl)isoxazolidine-2-yl)pyrimidine-4-yl)amino)-4-methoxy-2-(4-(4-(oxetane-3-yl)piperazine-1-yl)piperidine-1-yl)phenyl) acrylamide]	A (GI50 < 50 nM)
C#Cc1cccc([C@H]2CCON2c2cc(Nc3cc(NC(=O)C=C)c(N4CCC(N5CCN(C)CC5)CC4)cc3OC)ncn2)c1 [compound 649, N-(5-((6-((R)-3-(3-ethynylphenyl)isoxazolidine-2-yl)pyrimidine-4-yl)amino)-4-methoxy-2-(4-(4-methylpiperazine-1-yl)piperidine-1-yl)phenyl) acrylamide]	A (GI50 < 50 nM)
C=CC(=O)Nc1cc(Nc2cc(N3OCC[C@@H]3c3cc(F)cc(Cl)c3F)ncn2)c(OC)cc1N1CCN(C2CC2)CC1 [compound 939, N-(5-((6-((R)-3-(3-chloro-2,5-difluorophenyl)isoxazolidine-2-yl)pyrimidine-4-yl)amino)-2-(4-cyclopropylpiperazine-1-yl)-4-methoxyphenyl) acrylamide]	B (50 nM ≤ GI50 < 500 nM)
C=CC(=O)Nc1cc(Nc2cc(N3OCC[C@@H]3c3ccc(C)nc3)ncn2)c(OC)cc1N1CCC(N2CCN(C3CC3)CC2)CC1 [Example 67, N-(2-(4-(4-cyclopropylpiperazine-1-yl)piperidine-1-yl)-4-methoxy-5-((6-((R)-3-(6-methylpyridine-3-yl)isoxazolidine-2-yl)pyrimidine-4-yl)amino)phenyl) acrylamide]	B (50 nM ≤ GI50 < 500 nM)
C=CC(=O)Nc1cc(Nc2cc(N3OCC[C@@H]3c3cccc(F)c3F)ncn2)c(OC)cc1N1CCC(N2CCN(C3COC3)CC2)CC1 [Example 195, N-(5-((6-((R)-3-(2,3-difluorophenyl)isoxazolidine-2-yl)pyrimidine-4-yl)amino)-4-methoxy-2-(4-(4-(oxetane-3-yl)piperazine-1-yl)piperidine-1-yl)phenyl) acrylamide]	A (GI50 < 50 nM)
C=CC(=O)Nc1cc(Nc2cc(N3OCC[C@@H]3c3ccc(F)cc3F)ncn2)c(OC)cc1N1CCOCC1 [compound 325, N-(5-((6-((R)-3-(2,4-difluorophenyl)isoxazolidine-2-yl)pyrimidine-4-yl)amino)-4-methoxy-2-morpholinophenyl) acrylamide]	A (GI50 < 50 nM)
C=CC(=O)Nc1cc(Nc2cc(N3OCC[C@@H]3Cc3cc(F)cc(F)c3)ncn2)c(OC)cc1N(C)CCN(C)C [compound 1031, N-(5-((6-((S)-3-(3,5-difluorobenzyl)isoxazolidine-2-yl)pyrimidine-4-yl)amino)-2-((2-(dimethylamino)ethyl)(methyl)amino)-4-methoxyphenyl) acrylamide]	A (GI50 < 50 nM)
C=CC(=O)Nc1cc(Nc2cc(N3OCC[C@@H]3c3cccc(Cl)c3F)ncn2)c(OC)cc1N1CCN(C2COC2)CC1 [compound 745, N-(5-((6-((R)-3-(3-chloro-2-fluorophenyl)isoxazolidine-2-yl)pyrimidine-4-yl)amino)-4-methoxy-2-(4-(oxetane-3-yl)piperazine-1-yl)phenyl) acrylamide]	A (GI50 < 50 nM)
C=CC(=O)Nc1cc(Nc2cc(N3OCC[C@@H]3c3ccc(Cl)c(Cl)c3)ncn2)c(OC)cc1N1CCC(N2CCN(C(C)C)CC2)CC1 [compound 689, N-(5-((6-((R)-3-(3,4-dichlorophenyl)isoxazolidine-2-yl)pyrimidine-4-yl)amino)-2-(4-(4-isopropylpiperazine-1-yl)piperidine-1-yl)-4-methoxyphenyl) acrylamide]	B (50 nM ≤ GI50 < 500 nM)
C=CC(=O)Nc1cc(Nc2cc(N3OCC[C@@H]3c3cc(F)ccc3F)ncn2)c(OC)cc1N1CC[C@H](N2CCOCC2)C1 [compound 302, N-(5-((6-((R)-3-(2,5-difluorophenyl)isoxazolidine-2-yl)pyrimidine-4-yl)amino)-4-methoxy-2-((S)-3-morpholinopyrolidine-1-yl)phenyl)acrylamide]	B (50 nM ≤ GI50 < 500 nM)
C=CC(=O)Nc1cc(Nc2cc(N3OCC[C@@H]3c3cccc(F)c3Cl)ncn2)c(OC)cc1N1CCC(N2CC3CCC(C2)N3C2CC2)CC1 [Example 142, N-(5-((6-((R)-3-(2-chloro-3-fluorophenyl)isoxazolidine-2-yl)pyrimidine-4-yl)amino)-2-(4-(8-cyclopropyl-3,8-diazabicyclo[3.2.1]octan-3-yl)piperidine-1-yl)-4-methoxyphenyl) acrylamide]	A (GI50 < 50 nM)
C=CC(=O)Nc1cc(Nc2cc(N3OCC[C@@H]3c3cc(F)ccc3F)ncn2)c(OC)cc1N1CCC(N2CCN(C3CCC3)CC2)CC1 [Example 77, N-(2-(4-(4-cyclobutylpiperazine-1-yl)piperidine-1-yl)-5-((6-((R)-3-(2,5-difluorophenyl)isoxazolidine-2-yl)pyrimidine-4-yl)amino)-4-methoxyphenyl) acrylamide]	A (GI50 < 50 nM)
C=CC(=O)Nc1cc(Nc2cc(N3OCC[C@@H]3c3c(F)ccc(F)c3Cl)ncn2)c(OC)cc1N1CCC(N2CCN(C3CC3)[C@H](C)C2)CC1 [compound 935, N-(5-((6-((R)-3-(2-chloro-3,6-difluorophenyl)isoxazolidine-2-yl)pyrimidine-4-yl)amino)-2-(4-((R)-4-cyclopropyl-3-methylpiperazine-1-yl)piperidine-1-yl)-4-methoxyphenyl) acrylamide]	A (GI50 < 50 nM)
C=CC(=O)Nc1cc(Nc2cc(N3OCC[C@@H]3c3ccc(Cl)c(Cl)c3)ncn2)c(OC)cc1N1CC[C@@H](N(C)C)C1 [compound 682, N-(5-((6-((R)-3-(3,4-dichlorophenyl)isoxazolidine-2-yl)pyrimidine-4-yl)amino)-2-((R)-3-(dimethylamino)pyrolidine-1-yl)-4-methoxyphenyl) acrylamide]	A (GI50 < 50 nM)
C=CC(=O)Nc1cc(Nc2cc(N3OCC[C@@H]3c3ccc(F)c(Cl)c3)ncn2)c(OC)cc1N1CCN(C(C)=O)CC1 [compound 907, N-(2-(4-acetylpiperazine-1-yl)-5-((6-((R)-3-(3-chloro-4-fluorophenyl)isoxazolidine-2-yl)pyrimidine-4-yl)amino)-4-methoxyphenyl) acrylamide]	A (GI50 < 50 nM)
C=CC(=O)Nc1cc(Nc2cc(N3OCC[C@@H]3c3cc(F)ccc3F)ncn2)c(OC)cc1N1CCC(N2CCN(C)CC2)CC1 [compound 765, N-(5-((6-((R)-3-(2,5-difluorophenyl)isoxazolidine-2-yl)pyrimidine-4-yl)amino)-4-methoxy-2-(4-(4-methylpiperazine-1-yl)piperidine-1-yl)phenyl)acrylamide]	A (GI50 < 50 nM)
C=CC(=O)Nc1cc(Nc2cc(N3OCC[C@@H]3c3cccc(F)c3Cl)ncn2)c(OC)cc1N1CCC(N2CCOCC2)CC1 [compound 598, N-(5-((6-((R)-3-(2-chloro-3-fluorophenyl)isoxazolidine-2-yl)pyrimidine-4-yl)amino)-4-methoxy-2-(4-morpholinopiperidine-1-yl)phenyl)acrylamide]	A (GI50 < 50 nM)
C=CC(=O)Nc1cc(Nc2cc(N3OCC[C@@H]3c3cccc(Cl)c3Cl)ncn2)c(OC)cc1N1CCC(N2CCN(C(C)=O)CC2)CC1 [compound 608, N-(2-(4-(4-acetylpiperazine-1-yl)piperidine-1-yl)-5-((6-((R)-3-(2,3-dichlorophenyl)isoxazolidine-2-yl)pyrimidine-4-yl)amino)-4-methoxyphenyl) acrylamide]	A (GI50 < 50 nM)
C=CC(=O)Nc1cc(Nc2cc(N3OCC[C@@H]3c3ccc(C)nc3)ncn2)c(OC)cc1N1CCC(N2CCN(C(C)=O)CC2)CC1 [Example 232, N-(2-(4-(4-acetylpiperazine-1-yl)piperidine-1-yl)-4-methoxy-5-((6-((R)-3-(6-methylpyridine-3-yl)isoxazolidine-2-yl)pyrimidine-4-yl)amino)phenyl) acrylamide]	B (50 nM ≤ GI50 < 500 nM)
C=CC(=O)Nc1cc(Nc2cc(N3OCC[C@@H]3c3ccc4ccccc4c3)ncn2)c(OC)cc1N1CCC(N2CCN(CC)CC2)CC1 [compound 515, N-(2-(4-(4-ethylpiperazine-1-yl)piperidine-1-yl)-4-methoxy-5-((6-((R)-3-(naphthalene-2-yl)isoxazolidine-2-yl)pyrimidine-4-yl)amino)phenyl)acrylamide]	B (50 nM ≤ GI50 < 500 nM)
C=CC(=O)Nc1cc(Nc2cc(N3OCC[C@@H]3c3ccc(F)cc3F)ncn2)c(OC)cc1N1CCN(C(C)=O)CC1 [compound 343]	A (GI50 < 50 nM)
N-(5-((6-((R)-3-(4- chloro-3-fluorophenyl) isoxazolidine-2-yl) pyrimidine-4-yl)amino)- 4-methoxy-2-((R)-3- morpholinopyrolidine- 1-yl)phenyl)acrylamide [compound 419]	A (GI50 < 50 nM)
C=CC(=O)Nc1cc(Nc2cc(N3OCC[C@@H]3c3cccc(F)c3F)ncn2)c(OC)cc1N1CCN(C(C)C)CC1 [compound 334, N-(5-((6-((R)-3-(2,3-difluorophenyl)isoxazolidine-2-yl)pyrimidine-4-yl)amino)-2-(4-isopropylpiperazine-1-yl)-4-methoxyphenyl) acrylamide]	A (GI50 < 50 nM)
